Drawing on US10336762B2 (priority 2017, dated 2019), this text covers EC50 and IC50 for 23 molecules.

For one assay, the system named is TNFα. The assay is described as follows: cells. The format is cell-based, human. The conditions noted are these: Homo sapiens, Monocyte, LPS-stimulated human monocytes, TNFα content; read-out: EC50 TNF.
In a further assay the target is IRAK4 enzyme (Homo sapiens (Human), UniProt Q9NWZ3). Kind of assay: biochemical. It is filed as biochemical. The conditions noted are these: IRAK4 enzyme, TR-FRET (HTRF), 500 μM ATP.
Sequence of IRAK4 enzyme (Q9NWZ3 whole entry): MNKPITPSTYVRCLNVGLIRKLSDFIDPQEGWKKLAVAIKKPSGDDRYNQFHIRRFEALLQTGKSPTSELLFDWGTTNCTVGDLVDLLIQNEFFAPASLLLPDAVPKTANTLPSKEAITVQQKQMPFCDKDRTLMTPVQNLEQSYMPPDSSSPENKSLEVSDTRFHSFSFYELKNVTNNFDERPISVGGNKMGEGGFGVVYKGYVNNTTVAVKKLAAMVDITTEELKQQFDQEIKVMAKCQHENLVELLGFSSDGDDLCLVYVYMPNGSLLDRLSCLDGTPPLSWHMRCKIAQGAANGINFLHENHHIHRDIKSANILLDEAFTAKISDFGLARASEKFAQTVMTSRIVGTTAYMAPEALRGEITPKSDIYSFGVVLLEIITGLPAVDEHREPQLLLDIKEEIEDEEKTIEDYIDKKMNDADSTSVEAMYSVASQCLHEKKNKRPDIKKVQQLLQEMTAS

As a reminder, the EC50 is the concentration needed to bring the measured effect to its halfway point. As a reminder, the IC50 is the concentration that inhibits the measured activity by half.

As to `CC(C)(O)[C@H](F)CNC(=O)c1cnc(-c2ccc3cc(C#N)cnn23)cc1Nc1ccc(N2CC3(COC3)C2)nc1` [Example 684, (R)-4-((6-(2-oxa-6-azaspiro[3.3]heptan-6-yl)pyridin-3-yl)amino)-6-(3-cyanopyrrolo[1,2-b]pyridazin-7-yl)-N-(2-fluoro-3-hydroxy-3-methylbutyl)nicotinamide], the 50% effective concentration (EC50) with TNFα stood at 89 nM. In addition, on IRAK4 enzyme, the IC50 was 1 nM.

As to `COc1cc(Nc2cc(-c3ccc4cc(C#N)cnn34)ncc2C(=O)NC[C@@H](F)C(C)(C)O)ccc1N1CCOCC1` [Example 685, (R)-6-(3-cyanopyrrolo[1,2-b]pyridazin-7-yl)-N-(2-fluoro-3-hydroxy-3-methylbutyl)-4-((3-methoxy-4-morpholino-phenyl)amino)nicotinamide], the EC50 in the assay on TNFα is 398 nM. The molecule further showed an IC50 against IRAK4 enzyme of 10 nM.

For `C[C@@H]1CN(c2ncc(Nc3cc(-c4ccc5cc(C#N)cnn45)ncc3C(=O)NC[C@@H](F)C(C)(C)O)cn2)C[C@H](C)O1` [Example 686, 6-(3-cyanopyrrolo[1,2-b]pyridazin-7-yl)-4-((2-((2S,6R)-2,6-dimethyl-morpholino)pyrimidin-5-yl)amino)-N-((R)-2-fluoro-3-hydroxy-3-methylbutyl) nicotinamide], the concentration for a half-maximal effect (EC50) with TNFα was found to be 20 nM. The IC50 at IRAK4 enzyme is < 1 nM.

For the molecule `CC(C)(O)[C@H](F)CNC(=O)c1cnc(-c2ccc3cc(C#N)cnn23)cc1Nc1ccc(F)cn1` [Example 687, (R)-6-(3-cyanopyrrolo[1,2-b]pyridazin-7-yl)-N-(2-fluoro-3-hydroxy-3-methylbutyl)-4-((5-fluoro-pyridin-2-yl)amino) nicotinamide], the EC50 with TNFα was determined as 42 nM. On IRAK4 enzyme, the IC50 is < 1 nM.

For `CC(C)(O)[C@H](F)CNC(=O)c1cnc(-c2ccc3cc(C#N)cnn23)cc1Nc1ccc(N2CCS(=O)(=O)CC2)cc1` [Example 688, (R)-6-(3-cyanopyrrolo[1,2-b]pyridazin-7-yl)-4-((4-(1,1-dioxidothiomorpholino)phenyl)amino)-N-(2-fluoro-3-hydroxy-3-methylbutyl) nicotinamide], the EC50 in the assay with TNFα is 24 nM. Further, the half-maximal inhibitory concentration (IC50) at IRAK4 enzyme was < 1 nM.

As for `CC(C)(O)[C@H](F)CNC(=O)c1cnc(-c2ccc3cc(C#N)cnn23)cc1Nc1cnc(N2CC3(CCOCC3)C2)nc1` [Example 689, (R)-4-((2-(7-oxa-2-azaspiro[3.5]nonan-2-yl)pyrimidin-5-yl)amino)-6-(3-cyanopyrrolo[1,2-b]pyridazin-7-yl)-N-(2-fluoro-3-hydroxy-3-methylbutyl)nicotinamide], in the assay with TNFα, the EC50 came out at 180 nM. The same molecule displayed an IC50 at IRAK4 enzyme of 1 nM.

Regarding `CC(C)(O)[C@H](F)CNC(=O)c1cnc(-c2ccc3cc(C#N)cnn23)cc1N[C@H]1C[C@H](CN)C1` [Example 692, 4-(((1r,3R)-3-(amino-methyl)cyclobutyl)amino)-6-(3-cyanopyrrolo[1,2-b]pyridazin-7-yl)-N-((R)-2-fluoro-3-hydroxy-3-methylbutyl)nicotinamide], the EC50 with TNFα came out at 315 nM. In addition, the IC50 against IRAK4 enzyme was found to be 1 nM.

On to `CC(C)(O)[C@H](F)CNC(=O)c1cnc(-c2ccc3cc(C#N)cnn23)cc1-c1ccc2cc(C#N)cnn12` [Example 693, (R)-4,6-bis(3-cyano-pyrrolo[1,2-b]pyridazin-7-yl)-N-(2-fluoro-3-hydroxy-3-methylbutyl)nicotinamide], for which, in the assay on TNFα, the EC50 turned out to be 821 nM. It took 35 nM to reach half-maximal inhibition at IRAK4 enzyme (IC50).

Regarding `Cc1nnc(NC[C@H]2C[C@H](Nc3cc(-c4ccc5cc(C#N)cnn45)ncc3C(=O)NC[C@@H](F)C(C)(C)O)C2)o1` [Example 694, 6-(3-cyanopyrrolo[1,2-b]pyridazin-7-yl)-N—((R)-2-fluoro-3-hydroxy-3-methylbutyl)-4-(((1r,3R)-3-(((5-methyl-1,3,4-oxadiazol-2-yl)amino)methyl)cyclobutyl)amino)nicotinamide], the EC50 with TNFα stood at 102 nM. In addition, the IC50 against IRAK4 enzyme was < 1 nM.

Consider `CC(C)(O)[C@H](F)CNC(=O)c1cnc(-c2ccc3cc(C#N)cnn23)cc1N[C@H]1C[C@H](CNC(=O)C2CC2(F)F)C1` (stereo partly drawn) [Example 695, 6-(3-cyanopyrrolo[1,2-b]pyridazin-7-yl)-4-(((1R,3R)-3-(((R)-2,2-difluorocyclopropane-1-carboxamido)methyl)cyclobutyl)amino)-N-((R)-2-fluoro-3-hydroxy-3-methylbutyl)nicotinamide], for which the EC50 with TNFα came to 15 nM. At IRAK4 enzyme, the IC50 is < 1 nM.

On to `CC(C)(O)[C@H](F)CNC(=O)c1cnc(-c2ccc3cc(C#N)cnn23)cc1N[C@H]1C[C@H](CNc2nnc(C3CC3)o2)C1` [Example 696, 6-(3-cyanopyrrolo[1,2-b]pyridazin-7-yl)-4-(((1r,3R)-3-(((5-cyclopropyl-1,3,4-oxadiazol-2-yl)amino)methyl)cyclobutyl)amino)-N-((R)-2-fluoro-3-hydroxy-3-methylbutyl)nicotinamide], for which the EC50 in the assay on TNFα worked out at 103 nM. Moreover, at IRAK4 enzyme, the IC50 is < 1 nM.

As to `COCc1nnc(NC[C@H]2C[C@H](Nc3cc(-c4ccc5cc(C#N)cnn45)ncc3C(=O)NC[C@@H](F)C(C)(C)O)C2)o1` [Example 697, 6-(3-cyanopyrrolo[1,2-b]pyridazin-7-yl)-N-((R)-2-fluoro-3-hydroxy-3-methylbutyl)-4-(((1r,3R)-3-(((5-(methoxymethyl)-1,3,4-oxadiazol-2-yl)amino)methyl)cyclobutyl)amino) nicotinamide], the EC50 with TNFα is 171 nM. The midpoint of inhibition against IRAK4 enzyme, the IC50, lay at 1 nM.

For `COC(=O)NC[C@H]1C[C@@H](Nc2cc(-c3ccc4cc(C#N)cnn34)ncc2C(=O)NC[C@@H](F)C(C)(C)O)C1` [Example 698, methyl (((1S,3s)-3-((2-(3-cyanopyrrolo[1,2-b]pyridazin-7-yl)-5-(((R)-2-fluoro-3-hydroxy-3-methylbutyl)carbamoyl)pyridin-4-yl)amino)cyclo-butyl)methyl)carbamate], in the assay with TNFα, the 50% effective concentration (EC50) came out at 201 nM. The molecule further registered an IC50 against IRAK4 enzyme of 3 nM.

As to `CC(C)(O)[C@H](F)CNC(=O)c1cnc(-c2ccc3cc(C#N)cnn23)cc1N[C@H]1C[C@H](CNC(=O)[C@@H]2CC2(F)F)C1` [Example 699, 6-(3-cyanopyrrolo[1,2-b]pyridazin-7-yl)-4-(((1S,3R)-3-(((S)-2,2-difluorocyclopropane-1-carboxamido)methyl)cyclo-butyl)amino)-N-((R)-2-fluoro-3-hydroxy-3-methylbutyl)nicotinamide], in the assay on TNFα, the concentration for a half-maximal effect (EC50) worked out at 36 nM. Moreover, the IC50 on IRAK4 enzyme is < 1 nM.

Consider `CC(C)(O)[C@H](F)CNC(=O)c1cnc(-c2ccc3cc(C#N)cnn23)cc1N[C@H]1C[C@H](CNCC(F)(F)F)C1` [Example 700, 6-(3-cyanopyrrolo[1,2-b]pyridazin-7-yl)-N—((R)-2-fluoro-3-hydroxy-3-methylbutyl)-4-(((1r,3R)-3-(((2,2,2-trifluoroethyl)amino)methyl)cyclobutyl)amino)nicotinamide], for which, in the assay on TNFα, the EC50 came to 151 nM. In addition, the 50% inhibitory concentration (IC50) at IRAK4 enzyme amounted to 2 nM.

Take `CC(C)(O)[C@H](F)CNC(=O)c1cnc(-c2ccc3cc(C#N)cnn23)cc1N[C@H]1C[C@H](CN2CCOCC2)C1` [Example 701, 6-(3-cyanopyrrolo[1,2-b]pyridazin-7-yl)-N-((R)-2-fluoro-3-hydroxy-3-methylbutyl)-4-(((1r,3R)-3-(morpholino-methyl)cyclobutyl)amino)nicotinamide]: the EC50 in the assay with TNFα is 191 nM. For the same molecule, the IC50 at IRAK4 enzyme was 4 nM.

As to `CC(C)(O)[C@H](F)CNC(=O)c1cnc(-c2ccc3cc(C#N)cnn23)cc1N[C@H]1C[C@H](CNC2COC2)C1` [Example 702, 6-(3-cyanopyrrolo[1,2-b]pyridazin-7-yl)-N—((R)-2-fluoro-3-hydroxy-3-methylbutyl)-4-(((1r,3R)-3-((oxetan-3-ylamino)methyl)cyclobutyl)amino)nicotinamide], the EC50 in the assay on TNFα worked out at 119 nM. Also, the IC50 against IRAK4 enzyme is < 1 nM.

For the molecule `CC(C)(O)[C@H](F)CNC(=O)c1cnc(-c2ccc3cc(C#N)cnn23)cc1NCC1CCC1` [Example 703, (R)-6-(3-cyano-pyrrolo[1,2-b]pyridazin-7-yl)-4-((cyclobutyl-methyl)amino)-N-(2-fluoro-3-hydroxy-3-methylbutyl)nicotinamide], in the assay on TNFα, the concentration giving a half-maximal response (EC50) is 45 nM. Moreover, on IRAK4 enzyme, the IC50 is < 1 nM.

For the molecule `CC(C)(O)[C@H](F)CNC(=O)c1cnc(-c2ccc3cc(C#N)cnn23)cc1N[C@H]1C[C@H](Cn2cc(C3CC3)nn2)C1` [Example 704, 6-(3-cyanopyrrolo[1,2-b]pyridazin-7-yl)-4-(((1r,3R)-3-((4-cyclopropyl-1H-1,2,3-triazol-1-yl)methyl)cyclobutyl)amino)-N—((R)-2-fluoro-3-hydroxy-3-methylbutyl)nicotinamide], the EC50 in the assay on TNFα came to 69 nM. On IRAK4 enzyme, this molecule returned an IC50 of 1 nM.

In the case of `CC(C)(O)[C@H](F)CNC(=O)c1cnc(-c2ccc3cc(C#N)cnn23)cc1NCCc1ccc(F)cc1` [Example 707, (R)-6-(3-cyanopyrrolo[1,2-b]pyridazin-7-yl)-N-(2-fluoro-3-hydroxy-3-methylbutyl)-4-((4-fluorophenethyl)amino) nicotinamide], the EC50 in the assay with TNFα worked out at 42 nM. At IRAK4 enzyme, this molecule had an IC50 of 1 nM.

For `CC(C)(O)[C@H](F)CNC(=O)c1cnc(-c2ccc3cc(C#N)cnn23)cc1N[C@H]1C[C@H](Oc2ccccc2)C1` [Example 708, 6-(3-cyanopyrrolo[1,2-b]pyridazin-7-yl)-N-((R)-2-fluoro-3-hydroxy-3-methylbutyl)-4-(((1r,3R)-3-phenoxycyclobutyl)amino) nicotinamide], the EC50 in the assay on TNFα was 57 nM. The IC50 against IRAK4 enzyme turned out to be 1 nM.

`N#Cc1cnn2c(-c3cc(NC45CCC(O)(CC4)CC5)c(C(=O)NCC4(F)CC4)cn3)ccc2c1` [Example 709, 6-(3-cyanopyrrolo[1,2-b]pyridazin-7-yl)-N-((1-fluorocyclopropyl)methyl)-4-((4-hydroxy-bicyclo[2.2.2]octan-1-yl)amino)nicotinamide]: the concentration for a half-maximal effect (EC50) with TNFα turned out to be 151 nM. On IRAK4 enzyme, this molecule registered an IC50 of 3 nM.

As to `N#Cc1cnn2c(-c3cc(NC45CCC(O)(CC4)CC5)c(C(=O)NCC4(C(F)F)COC4)cn3)ccc2c1` [Example 710, 6-(3-cyanopyrrolo[1,2-b]pyridazin-7-yl)-N-((3-(difluoromethyl)oxetan-3-yl)methyl)-4-((4-hydroxybicyclo[2.2.2]octan-1-yl)amino) nicotinamide], the EC50 in the assay with TNFα worked out at 183 nM. Further, the IC50 at IRAK4 enzyme was found to be 4 nM.
